Assay results published in PubChem BioAssay (NCI).
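Assay format: 96-well plates, 48-hour exposure. GI50 = concentration required for 50% inhibition of growth. TGI: total growth inhibition.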

Assays:
Assay in all cases: NCI tumour cell line growth inhibition, 48 h
[1] = tested on: A498 renal
[2] = tested on: MDA-MB-435
[3] = tested on: SF-295 CNS
[4] = tested on: BT-549 breast
[5] = tested on: MALME-3M melanoma
[6] = tested on: RXF 393 renal
[7] = tested on: SK-OV-3 ovarian
[8] = tested on: NCI-H460 lung
[9] = tested on: HOP-92 NSCLC
[10] = tested on: NCI-H226 lung

With `COc1cc(-c2nc3nc(N4CCN(C)CC4)ccc3[nH]2)c(OC)c2[nH]c(COC(C)=O)nc12` the TGI [1] was greater than 100 µM, the TGI [2] was greater than 100 µM and the TGI [3] was greater than 100 µM. It also gave a TGI [4] greater than 100 µM, a TGI [5] of 67.9 µM and a TGI [6] of 86.7 µM. The TGI [7] was 82.1 µM, the TGI [8] was 99.3 µM and the TGI [9] was greater than 100 µM.

Molecule `O=C(O)/C=C/C(=O)O` has a TGI [2] greater than 100 µM, a TGI [3] greater than 100 µM and a TGI [5] greater than 100 µM. It also gave a TGI [8] greater than 100 µM, a TGI [10] greater than 100 µM and a TGI [9] greater than 100 µM.

For `CC(=O)Nc1ccc(-c2nnc(SCC(=O)Nc3ccccc3C)o2)cc1`, the TGI [3] was greater than 100 µM, the TGI [5] was greater than 100 µM and the TGI [6] was greater than 100 µM. The TGI [7] was greater than 100 µM, the TGI [8] was greater than 100 µM and the TGI [10] was greater than 100 µM. The TGI [9] was greater than 100 µM.

With `COc1cc(C2S/C(=C/c3ccccc3)C(=O)N2c2cccc([N+](=O)[O-])c2)cc(OC)c1OC` (stereo not given) the TGI [1] was greater than 100 µM, the TGI [2] was 41.2 µM and the TGI [3] was greater than 100 µM. It also gave a TGI [4] greater than 100 µM, a TGI [5] greater than 100 µM and a TGI [7] greater than 100 µM. For the same molecule, the TGI [10] was greater than 100 µM and the TGI [9] was greater than 100 µM.

`C#CCOC(=O)C(N)CCCN=C(N)N` (stereo not given) gave a TGI [1] greater than 100 µM, a TGI [2] greater than 100 µM and a TGI [4] greater than 100 µM. For the same molecule, the TGI [5] was greater than 100 µM, the TGI [6] was greater than 100 µM and the TGI [8] was greater than 100 µM. It also gave a TGI [10] greater than 100 µM and a TGI [9] greater than 100 µM.

Molecule `Nc1nc2cc(CNc3ccc(C(=O)NC(CCC(=O)O)C(=O)O)cc3)ccc2nc1-c1ccccc1` (stereo not given) has a TGI [1] greater than 10 µM, a TGI [2] greater than 10 µM and a TGI [3] greater than 10 µM. It also gave a TGI [4] greater than 10 µM, a TGI [5] greater than 10 µM and a TGI [6] greater than 10 µM. It also gave a TGI [7] greater than 10 µM, a TGI [8] greater than 10 µM and a TGI [10] greater than 10 µM.

Work on `COC(=O)n1c(CBr)c(Br)c2ccccc21` yielded a TGI [3] of 69.9 µM, a TGI [5] greater than 100 µM and a TGI [8] of 74.9 µM. For the same molecule, the TGI [10] was 33.6 µM and the TGI [9] was 68 µM.

Work on `COc1ccc(C2c3cc4c(cc3OC(N3CCCCC3)C2C)OCO4)cc1` (stereo not given) yielded a TGI [2] greater than 100 µM, a TGI [3] greater than 100 µM and a TGI [8] greater than 100 µM.

`Cc1cc([N+](=O)[O-])ccc1N=NC(=O)NNc1ccc([N+](=O)[O-])cc1C` gave a TGI [1] of 27.2 µM, a TGI [2] of 28.4 µM and a TGI [4] of 28.3 µM. The TGI [5] was 37 µM, the TGI [8] was 33.4 µM and the TGI [10] was 31.5 µM.

With `COc1nc2[nH]ccc2c(=O)n1C` the TGI [1] was greater than 100 µM, the TGI [3] was greater than 100 µM and the TGI [5] was greater than 100 µM. For the same molecule, the TGI [6] was greater than 100 µM, the TGI [8] was greater than 100 µM and the TGI [9] was greater than 100 µM.

In the case of `CCOC(=O)C(NCc1cccc(C(F)(F)F)c1)(NC(=O)c1ccccc1)C(F)(F)F` (stereo not given), the TGI [2] is reported as 79 µM, the TGI [3] is reported as greater than 100 µM and the TGI [4] is reported as 56.1 µM. The TGI [5] was 69 µM, the TGI [6] was 72.1 µM and the TGI [7] was greater than 100 µM. For the same molecule, the TGI [10] was greater than 100 µM and the TGI [9] was 64.7 µM.

`c1ccc(Nc2nnc(-c3nsc4ccccc34)o2)cc1` was tested, and the TGI [6] was greater than 100 µM, the TGI [8] was greater than 100 µM and the TGI [9] was greater than 100 µM.

`Cc1cccc2c1C/C(=C\c1cccc(C)c1C(=O)O)C2=O` was tested, and the TGI [1] was greater than 100 µM, the TGI [2] was greater than 100 µM and the TGI [3] was greater than 100 µM. For the same molecule, the TGI [4] was greater than 100 µM, the TGI [5] was greater than 100 µM and the TGI [6] was greater than 100 µM. The TGI [8] was greater than 100 µM, the TGI [10] was greater than 100 µM and the TGI [9] was greater than 100 µM.

Molecule `CC(C)(NC1=NCCO1)c1ccccc1` has a TGI [1] greater than 100 µM, a TGI [2] greater than 100 µM and a TGI [3] greater than 100 µM. The TGI [5] was greater than 100 µM, the TGI [6] was greater than 100 µM and the TGI [7] was greater than 100 µM. The TGI [8] was greater than 100 µM, the TGI [10] was greater than 100 µM and the TGI [9] was greater than 100 µM.

Work on `O=C(/C=C/c1ccccc1O)/C=C/c1ccccc1O` yielded a TGI [1] of 4.18 µM, a TGI [2] of 4.64 µM and a TGI [3] of 3.89 µM. For the same molecule, the TGI [4] was 3.28 µM, the TGI [5] was 4.27 µM and the TGI [7] was 4.34 µM. For the same molecule, the TGI [8] was 3.08 µM and the TGI [9] was 4.87 µM.

Molecule `CN(C)CCn1c(=O)c2ccc3c4c(nn3CCN(C)C)c3ccccc3n(c1=O)c24` has a TGI [1] of 1.34 µM, a TGI [2] of 1.39 µM and a TGI [3] of 0.849 µM. The TGI [4] was 5.5 µM, the TGI [5] was 2.13 µM and the TGI [6] was 1.26 µM. For the same molecule, the TGI [7] was 3.43 µM, the TGI [8] was 0.417 µM and the TGI [10] was 2.92 µM.

`CC(=O)OCC1OC(c2nnc(C)o2)=CC(OC(C)=O)C1OC(C)=O` (stereo not given) was tested, and the TGI [1] was greater than 100 µM, the TGI [2] was greater than 100 µM and the TGI [3] was greater than 100 µM. The TGI [4] was greater than 100 µM, the TGI [5] was greater than 100 µM and the TGI [6] was greater than 100 µM. It also gave a TGI [8] greater than 100 µM and a TGI [10] greater than 100 µM.

In the case of `CC1(C)[C@@H]2C[C@H]1C(Cc1cccc(C[C@H]3c4cc(-c5ccccn5)ncc4[C@H]4C[C@@H]3C4(C)C)c1)c1cc(-c3ccccn3)ncc12` (stereo not given in full), the TGI [1] is reported as greater than 57 µM, the TGI [2] is reported as greater than 58.5 µM and the TGI [3] is reported as greater than 54.3 µM. For the same molecule, the TGI [4] was greater than 93.5 µM, the GI50 [5] was 3.65 µM and the TGI [5] was 44.9 µM. For the same molecule, the TGI [6] was greater than 100 µM, the TGI [7] was greater than 33.4 µM and the TGI [8] was 12 µM.

In the case of `CCOC(=O)C(=Cn1c(=S)[nH]c2ccc([N+](=O)[O-])cc21)C(=O)OCC`, the TGI [1] is reported as greater than 100 µM, the TGI [2] is reported as greater than 100 µM and the TGI [3] is reported as greater than 100 µM. For the same molecule, the TGI [5] was greater than 100 µM, the TGI [6] was greater than 100 µM and the TGI [7] was greater than 100 µM. It also gave a TGI [8] greater than 100 µM, a TGI [10] greater than 100 µM and a TGI [9] greater than 100 µM.

Work on `NC(=O)NCCCC(NC(=O)OCCCCCn1ccc(=O)[nH]c1=O)C(=O)O` (stereo not given) yielded a TGI [2] greater than 100 µM, a TGI [3] greater than 100 µM and a TGI [4] greater than 100 µM. The TGI [6] was greater than 100 µM, the TGI [7] was greater than 100 µM and the TGI [8] was greater than 100 µM. It also gave a TGI [10] greater than 100 µM and a TGI [9] greater than 100 µM.

With `O=C(c1ccccc1)N1C(=S)N(c2ccc([N+](=O)[O-])cc2)C(=Nc2ccccc2)C1=Nc1ccccc1` the TGI [2] was greater than 100 µM, the TGI [3] was greater than 100 µM and the TGI [4] was greater than 100 µM. The TGI [5] was greater than 100 µM, the TGI [6] was greater than 100 µM and the TGI [7] was greater than 100 µM. For the same molecule, the TGI [8] was greater than 100 µM, the TGI [10] was greater than 100 µM and the TGI [9] was greater than 100 µM.

`COc1ccc(C2(C3c4cc(OC)c(OC)cc4CCN3C)SCCCS2)cc1O` (stereo not given) was tested, and the TGI [1] was greater than 100 µM, the TGI [2] was greater than 100 µM and the TGI [3] was greater than 100 µM. It also gave a TGI [4] greater than 100 µM, a TGI [5] greater than 100 µM and a TGI [6] greater than 100 µM. For the same molecule, the TGI [7] was greater than 100 µM, the TGI [8] was greater than 100 µM and the TGI [9] was greater than 100 µM.

Work on `O=C(OCc1ccccc1)N1c2cc([N+](=O)[O-])ccc2C(=O)N2CCC[C@H]2C1O` (stereo not given in full) yielded a TGI [1] greater than 100 µM, a TGI [2] greater than 100 µM and a TGI [3] greater than 100 µM. The TGI [4] was greater than 100 µM, the TGI [6] was greater than 100 µM and the TGI [7] was greater than 100 µM. The TGI [8] was greater than 100 µM, the TGI [10] was greater than 100 µM and the TGI [9] was greater than 100 µM.

In the case of `CC(C)CCC[C@@H](C)[C@H]1CCC2C3=CCC4C(=O)C=CC(=O)C4C3CC[C@@]21C` (stereo not given in full), the GI50 [1] is reported as 0.301 µM, the TGI [1] is reported as 1.14 µM and the GI50 [2] is reported as 0.254 µM. For the same molecule, the TGI [2] was 1.15 µM, the GI50 [3] was 0.172 µM and the TGI [3] was 0.576 µM. It also gave a GI50 [4] of 0.306 µM, a TGI [4] of 1.72 µM and a GI50 [5] of 0.399 µM. The TGI [5] was 2 µM, the GI50 [8] was 0.324 µM and the TGI [8] was 2.59 µM. For the same molecule, the GI50 [10] was 0.849 µM, the TGI [10] was greater than 100 µM and the GI50 [9] was 0.135 µM. It also gave a TGI [9] of 0.67 µM.
